# Test results as given in patent US20240390340A1 (INCYTE CORPORATION, priority 2023, published 2024).
# Read-outs that look alike come from different tables or passages of the source.
# Assays:
# [1] = target: KRAS G12D (Homo sapiens, UniProt P01116, G12D); assay: GDP-GTP exchange assay (bodipy-GDP/GppNHp, SOS1), KRAS G12D; type: biochemical
# Method: (§1) The inhibitor potency of the exemplified compounds was determined in a fluorescence based guanine nucleotide exchange assay, which measures the exchange of bodipy-GDP (fluorescently labeled GOP) for GppNHp (Non-hydrolyzable GTP analog) to generate the active state of KRAS in the presence of SOS1 (guanine nucleotide exchange factor). Inhibitors were serially diluted in DMSO and a volume of 0.1 μL was transferred to the wells of a black low volume 384-well plate. 5 μL/well volume of bodipy-loaded KRAS G12D diluted to 2.5 nM in assay buffer (25 mM Hepes pH 7.5, 50 mM NaCl, 10 mM MgCl2 and 0.01% Brij-35) was added to the plate and pre-incubated with inhibitor for 4 h at r.t. Appropriate controls (enzyme with no inhibitor or with a G12D inhibitor) were included on the plate. The exchange was initiated by the addition of a 5 μL/well volume containing 1 mM GppNHp and 300 nM SOS1 in assay buffer. The 10 μL/well reaction concentration of the bodipy-loaded KRAS G12D, GppNHp, and SOS1 were 2.5 nM, 500 μM, and 150 nM, respectively. The reaction plates were incubated at r.t. for 2 h, a time estimated for complete GDP-GTP exchange in the absence of inhibitor. For the KRAS G12V mutant, similar guanine nucleotide exchange assays were used with 2.5 nM as final concentration for the bodipy loaded KRAS proteins and 3 h incubation after adding GppNHp-SOS1 mixture. A cyclic peptide described to selectively bind G12D mutant (Sakamoto et al., BBRC 484.3 (2017), 605-611) or internal compounds with confirmed binding were used as positive controls in the assay plates. Fluorescence intensities were measured on a PheraStar plate reader instrument (BMG Labtech) with excitation at 485 nm and emission at 520 nm.
# (§2) Either GraphPad prism or Genedata Screener SmartFit was used to analyze the data. The IC50 values were derived by fitting the data to a four parameter logistic equation producing a sigmoidal dose-response curve with a variable Hill coefficient.
# (§3) The symbol “†” indicates IC50≤100 nM, “††” indicates IC50>100 nM but ≤1 μM; and “†††” indicates IC50 is >1 μM but ≤5 μM, “††††” indicates IC50 is >5 μM but ≤10 μM. “NA” indicates IC50 not available.
# [2] = target: KRAS G12V (Homo sapiens, UniProt P01116, G12V); assay: GDP-GTP exchange assay (bodipy-GDP/GppNHp, SOS1), KRAS G12V; type: biochemical
# KRAS G12V, sequence (P01116 1-188 isoform P01116-2 G12V): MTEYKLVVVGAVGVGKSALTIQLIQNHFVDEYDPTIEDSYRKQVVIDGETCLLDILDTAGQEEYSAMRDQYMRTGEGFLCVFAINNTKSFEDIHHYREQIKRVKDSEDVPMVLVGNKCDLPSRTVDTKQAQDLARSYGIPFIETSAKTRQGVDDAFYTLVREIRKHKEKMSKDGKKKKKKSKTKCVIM
# Method: as §1, §2, §3
# [3] = bodipy-loaded KRAS G12D 2.5 nM, 4 h pre-incubation, value for the most potent isomer quoted for certain compounds, read-out: G12D (KRAS G12D exchange assay IC50)
# [4] = KRAS G12V mutant, value for the most potent isomer quoted for certain compounds, read-out: G12V (KRAS G12V exchange assay IC50)
# KRAS G12D, sequence (P01116 1-188 isoform P01116-2 G12D): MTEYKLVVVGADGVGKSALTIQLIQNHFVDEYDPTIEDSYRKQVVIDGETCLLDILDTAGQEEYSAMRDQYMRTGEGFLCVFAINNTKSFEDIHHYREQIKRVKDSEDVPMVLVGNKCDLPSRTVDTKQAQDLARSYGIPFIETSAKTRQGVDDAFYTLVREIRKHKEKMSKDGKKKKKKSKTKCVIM
Compound,"IC50 [1, 3]","IC50 [2, 4]","IC50 ([1]; Table H, column G12D, for compounds isolated as several atropisomers/diastereoisomers the value for the most potent isomer is quoted, read-out: KRAS G12D exchange assay IC50)","IC50 ([2]; Table H, column G12V, for compounds isolated as several atropisomers/diastereoisomers the value for the most potent isomer is quoted, read-out: KRAS G12V exchange assay IC50)"
Cc1nc2c(F)c(-c3cccc(Cl)c3Cl)c(CCC#N)cc2c2c1cc([C@H]1C[C@H](Oc3ccc(=O)n(C)c3)CN1C(=O)C1CC1)n2[C@H]1[C@H]2CN[C@@H]1C2 [Example 50],–,–,≤ 0.1 µM,≤ 0.1 µM
Cc1nc2c(F)c(-c3cccc(Cl)c3Cl)c(CCC#N)cc2c2c1cc([C@H]1C[C@H](Oc3ccc(F)cc3)CN1C(=O)C1CC1)n2[C@H]1[C@H]2CN[C@@H]1C2 [Example 120],≤ 0.1 µM,≤ 0.1 µM,–,–
COC(=O)N1C[C@@H](Oc2ccccn2)C[C@@H]1c1cc2c(-c3ccc(CN(C)C)c(F)c3F)nc3c(F)c(-c4cccc(Cl)c4Cl)c(CCC#N)cc3c2n1[C@H]1[C@H]2CN[C@@H]1C2 [Example 148],≤ 0.1 µM,≤ 0.1 µM,–,–
COc1ncccc1O[C@H]1C[C@H](c2cc3c(C(C)O)nc4c(F)c(-c5cccc(Cl)c5Cl)c(CCC#N)cc4c3n2[C@H]2[C@H]3CN[C@@H]2C3)N(C(=O)C2CC2)C1 (stereo partly shown) [Example 221],≤ 0.1 µM,≤ 0.1 µM,–,–
Cc1nc2c(F)c(-c3cccc(Cl)c3Cl)c(CCC#N)cc2c2c1cc([C@H]1C[C@H](OCc3ccnc(C(F)(F)F)c3)CN1C(=O)C1CC1)n2[C@H]1[C@H]2CN[C@@H]1C2 [Example 259],≤ 0.1 µM,≤ 0.1 µM,–,–
Cc1nc2c(F)c(-c3cccc(Cl)c3Cl)c(CCC#N)cc2c2c1cc([C@H]1C[C@H](n3cncn3)CN1C(=O)C1CC1)n2[C@H]1[C@H]2CN[C@@H]1C2 [Example 276],≤ 0.1 µM,≤ 0.1 µM,–,–
Cc1nc2c(F)c(-c3cccc(Cl)c3Cl)c(CCC#N)cc2c2c1cc([C@H]1C[C@H](n3ccc(C#N)n3)CN1C(=O)C1CC1)n2[C@H]1[C@H]2CN[C@@H]1C2 [Example 317],≤ 0.1 µM,≤ 0.1 µM,–,–
Cc1nc2c(F)c(-c3cccc(Cl)c3Cl)c(CCC#N)cc2c2c1cc([C@H]1C[C@H](OC(C)c3ccccn3)CN1C(=O)C1CC1)n2[C@H]1[C@H]2CN[C@@H]1C2 (stereo partly shown) [Example 226],≤ 0.1 µM,≤ 0.1 µM,–,–
Cc1nc2c(F)c(-c3cccc(Cl)c3Cl)c(CCC#N)cc2c2c1cc([C@H]1C[C@H](n3cccn3)CN1C(=O)C1CC1)n2[C@H]1[C@H]2CN[C@@H]1C2 [Example 314],≤ 0.1 µM,≤ 0.1 µM,–,–
COc1cc(O[C@H]2C[C@H](c3cc4c(C)nc5c(F)c(-c6cccc(Cl)c6Cl)c(CCC#N)cc5c4n3[C@H]3[C@H]4CN[C@@H]3C4)N(C(=O)C3CC3)C2)ccc1C#N [Example 287],≤ 0.1 µM,≤ 0.1 µM,–,–
Cc1nc2c(F)c(-c3cccc(Cl)c3Cl)c(CCC#N)cc2c2c1cc([C@H]1C[C@H](OCC3CCCC3)CN1C(=O)C1CC1)n2[C@H]1[C@H]2CN[C@@H]1C2 [Example 153],≤ 0.1 µM,≤ 0.1 µM,–,–
Cc1nc2c(F)c(-c3cccc(Cl)c3Cl)c(CCC#N)cc2c2c1cc([C@H]1C[C@H](OCc3c(F)cccc3F)CN1C(=O)N(C)c1ccccc1)n2[C@H]1[C@H]2CN[C@@H]1C2 [Example 197],0.1 to 1 µM,≤ 0.1 µM,–,–
Cc1nc2c(F)c(-c3cccc(Cl)c3Cl)c(CCC#N)cc2c2c1cc([C@H]1C[C@H](OCc3ccccc3S(C)(=O)=O)CN1C(=O)C1CC1)n2[C@H]1[C@H]2CN[C@@H]1C2 [Example 163],≤ 0.1 µM,≤ 0.1 µM,–,–
Cc1nc2c(F)c(-c3cccc(Cl)c3Cl)c(CCC#N)cc2c2c1cc([C@H]1C[C@H](n3cc(C(C)N4CCOC4=O)nn3)CN1C(=O)C1CC1)n2[C@H]1[C@H]2CN[C@@H]1C2 (stereo partly shown) [Example 325],≤ 0.1 µM,≤ 0.1 µM,–,–
COc1cc(F)cc(O[C@H]2C[C@H](c3cc4c(C)nc5c(F)c(-c6cccc(Cl)c6Cl)c(CCC#N)cc5c4n3[C@H]3[C@H]4CN[C@@H]3C4)N(C(=O)C3CC3)C2)c1 [Example 190],≤ 0.1 µM,≤ 0.1 µM,–,–
COc1ccnc(O[C@H]2C[C@H](c3cc4c(C)nc5c(F)c(-c6cccc(Cl)c6Cl)c(CCC#N)cc5c4n3[C@H]3[C@H]4CN[C@@H]3C4)N(C(=O)C3CC3)C2)c1 [Example 328],≤ 0.1 µM,≤ 0.1 µM,–,–
Cc1nc2c(F)c(-c3cccc(Cl)c3Cl)c(CCC#N)cc2c2c1cc([C@H]1C[C@H](Oc3ccccc3)CN1C(=O)C1CC1)n2[C@H]1[C@H]2CN[C@@H]1C2 [Example 103],≤ 0.1 µM,≤ 0.1 µM,–,–
Cc1nc2c(F)c(-c3cccc(Cl)c3Cl)c(CCC#N)cc2c2c1cc([C@H]1C[C@H](n3cc(C4CNC(=O)C4)nn3)CN1C(=O)C1CC1)n2[C@H]1[C@H]2CN[C@@H]1C2 (stereo partly shown) [Example 273],≤ 0.1 µM,≤ 0.1 µM,–,–
Cc1nc2c(F)c(-c3cccc(Cl)c3Cl)c(CCC#N)cc2c2c1cc([C@H]1C[C@H](Oc3cccnc3N3CCOCC3)CN1C(=O)C1CC1)n2[C@H]1[C@H]2CN[C@@H]1C2 [Example 284],≤ 0.1 µM,≤ 0.1 µM,–,–
Cc1nc2c(F)c(-c3cccc(Cl)c3Cl)c(CCC#N)cc2c2c1cc([C@H]1C[C@H](n3cc(CC4CCNC4=O)nn3)CN1C(=O)C1CC1)n2[C@H]1[C@H]2CN[C@@H]1C2 (stereo partly shown) [Example 269],≤ 0.1 µM,≤ 0.1 µM,–,–
Cc1nc2c(F)c(-c3cccc(Cl)c3Cl)c(CCC#N)cc2c2c1cc([C@H]1C[C@H](Oc3cnccn3)CN1C(=O)C1CC1)n2[C@H]1[C@H]2CN[C@@H]1C2 [Example 137],≤ 0.1 µM,≤ 0.1 µM,–,–
Cc1nc2c(F)c(-c3cccc(Cl)c3Cl)c(CCC#N)cc2c2c1cc([C@H]1C[C@H](OC(=O)c3ccccc3)CN1C(=O)C1CC1)n2[C@H]1[C@H]2CN[C@@H]1C2 [Example 270],≤ 0.1 µM,–,–,–

# Further lines, results first:
"IC50 [1, 3]","IC50 [2, 4]","IC50 ([1]; Table H, column G12D, for compounds isolated as several atropisomers/diastereoisomers the value for the most potent isomer is quoted, read-out: KRAS G12D exchange assay IC50)","IC50 ([2]; Table H, column G12V, for compounds isolated as several atropisomers/diastereoisomers the value for the most potent isomer is quoted, read-out: KRAS G12V exchange assay IC50)",Compound
≤ 0.1 µM,≤ 0.1 µM,–,–,Cc1nc2c(F)c(-c3cccc(Cl)c3Cl)c(CCC#N)cc2c2c1cc([C@H]1C[C@H](n3cnnn3)CN1C(=O)C1CC1)n2[C@H]1[C@H]2CN[C@@H]1C2 [Example 395]
≤ 0.1 µM,≤ 0.1 µM,–,–,Cc1csnc1C(C)O[C@H]1C[C@H](c2cc3c(C)nc4c(F)c(-c5cccc(Cl)c5Cl)c(CCC#N)cc4c3n2[C@H]2[C@H]3CN[C@@H]2C3)N(C(=O)C2CC2)C1 (stereo partly shown) [Example 330]
≤ 0.1 µM,≤ 0.1 µM,–,–,Cc1nc2c(F)c(-c3cccc(Cl)c3Cl)c(CCC#N)cc2c2c1cc([C@H]1C[C@H](Oc3ccnc(C4CCC4)c3)CN1C(=O)C1CC1)n2[C@H]1[C@H]2CN[C@@H]1C2 [Example 421]
≤ 0.1 µM,≤ 0.1 µM,–,–,Cc1nc2c(F)c(-c3cccc(Cl)c3Cl)c(CCC#N)cc2c2c1cc([C@H]1C[C@H](n3cc(N4CCOCC4)cn3)CN1C(=O)C1CC1)n2[C@H]1[C@H]2CN[C@@H]1C2 [Example 428]
≤ 0.1 µM,≤ 0.1 µM,–,–,Cc1nc2c(F)c(-c3cccc(Cl)c3Cl)c(CCC#N)cc2c2c1cc([C@H]1C[C@H](Oc3ccnn3C(F)(F)F)CN1C(=O)C1CC1)n2[C@H]1[C@H]2CN[C@@H]1C2 [Example 406]
≤ 0.1 µM,≤ 0.1 µM,–,–,Cc1nc2c(F)c(-c3cccc(Cl)c3Cl)c(CCC#N)cc2c2c1cc([C@H]1C[C@H](OC[C@H]3C[C@@H](C#N)C3)CN1C(=O)C1CC1)n2[C@H]1[C@H]2CN[C@@H]1C2 [Example 403]
≤ 0.1 µM,≤ 0.1 µM,–,–,Cc1nc2c(F)c(-c3cccc(Cl)c3Cl)c(CCC#N)cc2c2c1cc([C@H]1C[C@H](Oc3ccn(CC(F)(F)F)n3)CN1C(=O)C1CC1)n2[C@H]1[C@H]2CN[C@@H]1C2 [Example 411]
≤ 0.1 µM,≤ 0.1 µM,–,–,CCc1nnn([C@H]2C[C@H](c3cc4c(C)nc5c(F)c(-c6cccc(Cl)c6Cl)c(CCC#N)cc5c4n3[C@H]3[C@H]4CN[C@@H]3C4)N(C(=O)C3CC3)C2)c1-c1ccccc1 [Example 392]
≤ 0.1 µM,≤ 0.1 µM,–,–,Cc1nc2c(F)c(-c3cccc(Cl)c3Cl)c(CCC#N)cc2c2c1cc([C@H]1C[C@H](OC3CC3C(=O)NC(C)(C)C)CN1C(=O)C1CC1)n2[C@H]1[C@H]2CN[C@@H]1C2 (stereo partly shown) [Example 378]
≤ 0.1 µM,≤ 0.1 µM,–,–,Cc1nc2c(F)c(-c3cccc(Cl)c3Cl)c(CCC#N)cc2c2c1cc([C@H]1C[C@H](O[C@H]3CCOC3)CN1C(=O)C1CC1)n2[C@H]1[C@H]2CN[C@@H]1C2 [Example 365]
≤ 0.1 µM,≤ 0.1 µM,–,–,Cc1nc2c(F)c(-c3cccc(Cl)c3Cl)c(CCC#N)cc2c2c1cc([C@H]1C[C@H](n3nnnc3C)CN1C(=O)C1CC1)n2[C@H]1[C@H]2CN[C@@H]1C2 [Example 397]
≤ 0.1 µM,≤ 0.1 µM,–,–,Cc1nc2c(F)c(-c3cccc(Cl)c3Cl)c(CCC#N)cc2c2c1cc([C@H]1C[C@H](OCC3(C)CC(F)(F)C3)CN1C(=O)C1CC1)n2[C@H]1[C@H]2CN[C@@H]1C2 [Example 412]
